From BigSolDB 2.1

c1ccc2c(c1)sc1ccccc12
solubility (mole fraction) (in 2-(2-butoxyethoxy)ethanol, 282.75 K): 0.063
solubility (mole fraction) (in 2-(2-butoxyethoxy)ethanol, 285.85 K): 0.0695
solubility (mole fraction) (in 2-(2-butoxyethoxy)ethanol, 291.65 K): 0.0873
solubility (mole fraction) (in 2-(2-butoxyethoxy)ethanol, 298.95 K): 0.105
solubility (mole fraction) (in 2-(2-butoxyethoxy)ethanol, 304.35 K): 0.123
solubility (mole fraction) (in 2-(2-butoxyethoxy)ethanol, 309.85 K): 0.144
solubility (mole fraction) (in 2-(2-butoxyethoxy)ethanol, 316.05 K): 0.167
solubility (mole fraction) (in 2-(2-butoxyethoxy)ethanol, 320.95 K): 0.192
solubility (mole fraction) (in 2-(2-butoxyethoxy)ethanol, 324.35 K): 0.217
solubility (mole fraction) (in 2-(2-butoxyethoxy)ethanol, 328.95 K): 0.245
solubility (mole fraction) (in 2-(2-butoxyethoxy)ethanol, 333.15 K): 0.28
solubility (mole fraction) (in DMF, 289.45 K): 0.113
solubility (mole fraction) (in DMF, 294.25 K): 0.131
solubility (mole fraction) (in DMF, 298.65 K): 0.147
solubility (mole fraction) (in DMF, 302.65 K): 0.165
solubility (mole fraction) (in DMF, 306.55 K): 0.184
solubility (mole fraction) (in DMF, 310.15 K): 0.206
solubility (mole fraction) (in DMF, 314.35 K): 0.231
solubility (mole fraction) (in DMF, 318.35 K): 0.257
solubility (mole fraction) (in DMF, 322.35 K): 0.285
solubility (mole fraction) (in DMF, 325.55 K): 0.313
solubility (mole fraction) (in DMF, 329.25 K): 0.344
solubility (mole fraction) (in DMSO, 292.95 K): 0.0567
solubility (mole fraction) (in DMSO, 296.45 K): 0.0668
solubility (mole fraction) (in DMSO, 301.25 K): 0.0791
solubility (mole fraction) (in DMSO, 306.15 K): 0.0925
solubility (mole fraction) (in DMSO, 310.15 K): 0.108
solubility (mole fraction) (in DMSO, 314.85 K): 0.127
solubility (mole fraction) (in DMSO, 318.05 K): 0.15
solubility (mole fraction) (in DMSO, 322.95 K): 0.177
solubility (mole fraction) (in DMSO, 325.45 K): 0.201
solubility (mole fraction) (in DMSO, 330.15 K): 0.234
solubility (mole fraction) (in DMSO, 333.25 K): 0.264
solubility (mole fraction) (in acetone, 300.15 K): 0.0769
solubility (mole fraction) (in acetone, 301.15 K): 0.0792
solubility (mole fraction) (in acetone, 303.15 K): 0.0884
solubility (mole fraction) (in acetone, 308.15 K): 0.107
solubility (mole fraction) (in acetone, 311.25 K): 0.12
solubility (mole fraction) (in acetone, 314.65 K): 0.136
solubility (mole fraction) (in acetone, 317.95 K): 0.156
solubility (mole fraction) (in acetone, 321.65 K): 0.179
solubility (mole fraction) (in acetone, 326.25 K): 0.217
solubility (mole fraction) (in acetone, 330.95 K): 0.261
solubility (mole fraction) (in acetone, 336.25 K): 0.319
solubility (mole fraction) (in acetone, 341.15 K): 0.372
solubility (mole fraction) (in acetonitrile, 289.35 K): 0.0103
solubility (mole fraction) (in acetonitrile, 290.45 K): 0.0107
solubility (mole fraction) (in acetonitrile, 293.25 K): 0.0121
solubility (mole fraction) (in acetonitrile, 297.35 K): 0.0143
solubility (mole fraction) (in acetonitrile, 302.15 K): 0.0175
solubility (mole fraction) (in acetonitrile, 304.55 K): 0.0199
solubility (mole fraction) (in acetonitrile, 309.25 K): 0.0244
solubility (mole fraction) (in decalin, 294.15 K): 0.0408
solubility (mole fraction) (in decalin, 296.15 K): 0.042
solubility (mole fraction) (in decalin, 298.15 K): 0.0445
solubility (mole fraction) (in decalin, 302.15 K): 0.049
solubility (mole fraction) (in decalin, 304.15 K): 0.0516
solubility (mole fraction) (in decalin, 308.15 K): 0.0571
solubility (mole fraction) (in decalin, 317.15 K): 0.0706
solubility (mole fraction) (in decalin, 325.15 K): 0.0891
solubility (mole fraction) (in decalin, 331.15 K): 0.101
solubility (mole fraction) (in decalin, 337.15 K): 0.107
solubility (mole fraction) (in diethylene glycol, 287.85 K): 0.00027
solubility (mole fraction) (in diethylene glycol, 299.95 K): 0.00062
solubility (mole fraction) (in diethylene glycol, 309.95 K): 0.00093
solubility (mole fraction) (in diethylene glycol, 314.15 K): 0.00119
solubility (mole fraction) (in diethylene glycol, 317.65 K): 0.00163
solubility (mole fraction) (in diethylene glycol, 320.95 K): 0.0023
solubility (mole fraction) (in diethylene glycol, 324.95 K): 0.00328
solubility (mole fraction) (in diethylene glycol, 326.85 K): 0.00443
solubility (mole fraction) (in diethylene glycol, 328.15 K): 0.00619
solubility (mole fraction) (in diethylene glycol, 330.15 K): 0.00951
solubility (mole fraction) (in diethylene glycol, 332.35 K): 0.0143
solubility (mole fraction) (in diethylene glycol, 334.15 K): 0.0203
solubility (mole fraction) (in ethanol, 294.55 K): 0.0062
solubility (mole fraction) (in ethanol, 300.25 K): 0.0074
solubility (mole fraction) (in ethanol, 303.85 K): 0.0082
solubility (mole fraction) (in ethanol, 306.45 K): 0.0092
solubility (mole fraction) (in ethanol, 310.25 K): 0.0106
solubility (mole fraction) (in ethanol, 313.95 K): 0.0121
solubility (mole fraction) (in ethanol, 318.95 K): 0.0141
solubility (mole fraction) (in ethanol, 322.55 K): 0.0164
solubility (mole fraction) (in ethanol, 327.35 K): 0.0197
solubility (mole fraction) (in ethanol, 331.15 K): 0.0239
solubility (mole fraction) (in n-octane, 292.05 K): 0.0232
solubility (mole fraction) (in n-octane, 294.15 K): 0.0244
solubility (mole fraction) (in n-octane, 297.15 K): 0.0277
solubility (mole fraction) (in n-octane, 300.05 K): 0.0317
solubility (mole fraction) (in n-octane, 304.15 K): 0.0373
solubility (mole fraction) (in n-octane, 308.25 K): 0.0438
solubility (mole fraction) (in n-octane, 314.15 K): 0.0521
solubility (mole fraction) (in n-octane, 318.15 K): 0.062
solubility (mole fraction) (in n-octane, 325.15 K): 0.0767
solubility (mole fraction) (in n-octane, 337.15 K): 0.0995
solubility (mole fraction) (in n-propanol, 288.05 K): 0.0065
solubility (mole fraction) (in n-propanol, 295.95 K): 0.0083
solubility (mole fraction) (in n-propanol, 300.15 K): 0.0099
solubility (mole fraction) (in n-propanol, 303.85 K): 0.0118
solubility (mole fraction) (in n-propanol, 307.85 K): 0.0143
solubility (mole fraction) (in n-propanol, 314.65 K): 0.0183
solubility (mole fraction) (in n-propanol, 320.65 K): 0.0232
solubility (mole fraction) (in n-propanol, 324.05 K): 0.0292
solubility (mole fraction) (in n-propanol, 328.95 K): 0.0363
solubility (mole fraction) (in n-propanol, 332.25 K): 0.043
solubility (mole fraction) (in n-propanol, 336.05 K): 0.0486
solubility (mole fraction) (in sulfolane, 297.65 K): 0.0541
solubility (mole fraction) (in sulfolane, 299.45 K): 0.0563
solubility (mole fraction) (in sulfolane, 301.75 K): 0.0609
solubility (mole fraction) (in sulfolane, 303.45 K): 0.0712
solubility (mole fraction) (in sulfolane, 309.15 K): 0.0923
solubility (mole fraction) (in sulfolane, 313.35 K): 0.109
solubility (mole fraction) (in sulfolane, 317.05 K): 0.125
solubility (mole fraction) (in sulfolane, 321.05 K): 0.144
solubility (mole fraction) (in sulfolane, 324.85 K): 0.163
solubility (mole fraction) (in sulfolane, 327.75 K): 0.185
solubility (mole fraction) (in sulfolane, 331.75 K): 0.214
solubility (mole fraction) (in sulfolane, 334.75 K): 0.242
solubility (mole fraction) (in sulfolane, 338.25 K): 0.271
solubility (mole fraction) (in sulfolane, 340.45 K): 0.294
